Reference: paper PMC6366710, “The structural basis of unique substrate recognition by Plasmodium thymidylate kinase: Molecular dynamics simulation and inhibitory studies” (PLoS ONE, 2019)
pKi: −log10 of the molar value.

Target: T1, PfTMK (Plasmodium falciparum thymidylate kinase) (Plasmodium falciparum, UniProt Q8I4S1)
T1 construct: gene TMK; natural dimer
T1 sequence (Q8I4S1 1-210): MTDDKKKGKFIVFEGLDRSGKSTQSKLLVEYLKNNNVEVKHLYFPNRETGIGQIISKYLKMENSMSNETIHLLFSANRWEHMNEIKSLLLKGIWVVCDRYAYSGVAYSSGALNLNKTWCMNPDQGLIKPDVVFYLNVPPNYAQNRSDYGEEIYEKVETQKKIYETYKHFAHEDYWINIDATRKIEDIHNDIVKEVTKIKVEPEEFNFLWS
Experiment: NADH-coupled (pyruvate kinase/lactate dehydrogenase) spectrophotometric TMP kinase assay, initial rates
Format: biochemical
Text: NADH-coupled (pyruvate kinase/lactate dehydrogenase) spectrophotometric TMP kinase assay, initial rates on PfTMK (Plasmodium falciparum thymidylate kinase)

Compared with `Nc1ncn([C@H]2C[C@H](OP(=O)(O)OC[C@H]3O[C@@H](n4cnc5c(=O)[nH]c(N)nc54)C[C@@H]3O)[C@@H](CO)O2)c(=O)n1` [Guadecitabine], `Nc1nc2c(ncn2[C@H]2C[C@H](O)[C@@H](CO)O2)c(=O)[nH]1` [deoxyguanosine] is 0.48 log units lower in pKi: 4.05 for the first, 3.57 for the second.

Compared with `Nc1nc2c(ncn2[C@@H]2O[C@H](COP(=O)(O)OP(=O)(O)O[C@H]3O[C@H](CO)[C@@H](O)[C@H](O)[C@@H]3O)[C@@H](O)[C@H]2O)c(=O)[nH]1` [Guanosine diphosphate mannose], `Nc1nc2c(nc(O)n2[C@H]2C[C@H](O)[C@@H](CO)O2)c(=O)[nH]1` [8-Hydroxy-2'-deoxyguanosine] is higher in pKi: less than 3.00 for the first, 3.74 for the second. The second binds more tightly here.
